Test results as given in patent US12391679B2, “Benzamide-substituted bicyclic imidazo- and pyrazolo-fused -pyridine, -pyrimide, and -pyridazine compounds for treatment of inflammatory diseases” (ONCO3R Therapeutics BV, priority 2019, dated 2025).
pEC50, pIC50: −log10 of the molar value.

Legend:
SIK1 = molecular target: T1, SIK1 (Homo sapiens, UniProt P57059); assay: ADP-Glo kinase assay, SIK1; format: biochemical
T1 construct: purchased Carna Biosciences 02-131
In short: (§1)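 Each SIK isoform is incubated with substrate and ATP for 2 h at room temperature, after which residual ATP is depleted and the ADP formed is quantified by luminescence.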

SIK2 = molecular target: T2, SIK2 (Homo sapiens, UniProt Q9H0K1); assay: ADP-Glo kinase assay, SIK2; format: biochemical
T2 construct: purchased ThermoFisher Scientific PV4792
In short: as §1

SIK3 = molecular target: T3, SIK3 (Homo sapiens, UniProt Q9Y2K2); assay: ADP-Glo kinase assay, SIK3; format: biochemical
T3 construct: purchased SignalChem S12-11G-100
In short: as §1

[1] = system: LPS-induced TNFα in monocytes; assay: Monocytes assay: LPS-triggered TNFα (ELISA); format: cell-based, human; conditions: Homo sapiens, Monocyte, LPS-triggered TNFα inhibition
In short: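 CD14+ monocytes were magnetically isolated from human buffy-coat PBMCs, preincubated with compound 1 h at 37 °C (0.2% DMSO), then stimulated with LPS at 200 ng/mL for 4 h. Supernatant TNFα was measured by luminescent sandwich ELISA; percentage inhibition was calculated against controls for each concentration.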

T3 sequence (Q9Y2K2 59-365 limits assumed): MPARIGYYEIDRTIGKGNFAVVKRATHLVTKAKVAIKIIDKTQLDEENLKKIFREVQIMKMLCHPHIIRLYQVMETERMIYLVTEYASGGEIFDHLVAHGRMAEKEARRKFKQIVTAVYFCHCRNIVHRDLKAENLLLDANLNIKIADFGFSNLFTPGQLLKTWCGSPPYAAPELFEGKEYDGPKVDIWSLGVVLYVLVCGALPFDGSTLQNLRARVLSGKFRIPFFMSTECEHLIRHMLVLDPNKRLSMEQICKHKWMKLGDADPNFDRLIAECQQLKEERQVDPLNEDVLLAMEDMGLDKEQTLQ
T2 sequence (Q9H0K1 whole entry): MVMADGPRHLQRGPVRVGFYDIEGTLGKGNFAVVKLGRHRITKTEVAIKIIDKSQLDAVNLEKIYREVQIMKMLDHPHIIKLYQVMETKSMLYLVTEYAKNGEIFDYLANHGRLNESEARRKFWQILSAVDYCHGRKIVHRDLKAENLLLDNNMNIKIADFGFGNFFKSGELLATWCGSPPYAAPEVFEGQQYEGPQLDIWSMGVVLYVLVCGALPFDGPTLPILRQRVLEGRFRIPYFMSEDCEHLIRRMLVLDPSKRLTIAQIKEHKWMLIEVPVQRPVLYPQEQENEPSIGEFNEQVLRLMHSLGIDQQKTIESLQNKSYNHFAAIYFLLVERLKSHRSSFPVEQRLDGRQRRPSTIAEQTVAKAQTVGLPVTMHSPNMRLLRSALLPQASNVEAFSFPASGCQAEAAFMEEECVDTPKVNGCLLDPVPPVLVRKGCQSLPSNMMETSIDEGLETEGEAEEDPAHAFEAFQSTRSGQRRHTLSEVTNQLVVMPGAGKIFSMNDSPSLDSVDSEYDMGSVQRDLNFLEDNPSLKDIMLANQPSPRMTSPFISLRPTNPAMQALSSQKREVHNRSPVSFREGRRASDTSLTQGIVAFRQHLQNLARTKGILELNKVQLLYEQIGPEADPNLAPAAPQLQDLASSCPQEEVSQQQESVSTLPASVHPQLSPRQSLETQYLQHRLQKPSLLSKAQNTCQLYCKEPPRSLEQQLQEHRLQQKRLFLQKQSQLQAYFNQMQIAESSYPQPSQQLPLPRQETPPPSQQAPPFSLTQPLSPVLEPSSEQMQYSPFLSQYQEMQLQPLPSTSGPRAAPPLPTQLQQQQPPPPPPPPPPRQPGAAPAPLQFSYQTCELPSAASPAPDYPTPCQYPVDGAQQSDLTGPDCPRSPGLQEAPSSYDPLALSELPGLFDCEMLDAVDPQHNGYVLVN
T1 sequence (P57059 whole entry): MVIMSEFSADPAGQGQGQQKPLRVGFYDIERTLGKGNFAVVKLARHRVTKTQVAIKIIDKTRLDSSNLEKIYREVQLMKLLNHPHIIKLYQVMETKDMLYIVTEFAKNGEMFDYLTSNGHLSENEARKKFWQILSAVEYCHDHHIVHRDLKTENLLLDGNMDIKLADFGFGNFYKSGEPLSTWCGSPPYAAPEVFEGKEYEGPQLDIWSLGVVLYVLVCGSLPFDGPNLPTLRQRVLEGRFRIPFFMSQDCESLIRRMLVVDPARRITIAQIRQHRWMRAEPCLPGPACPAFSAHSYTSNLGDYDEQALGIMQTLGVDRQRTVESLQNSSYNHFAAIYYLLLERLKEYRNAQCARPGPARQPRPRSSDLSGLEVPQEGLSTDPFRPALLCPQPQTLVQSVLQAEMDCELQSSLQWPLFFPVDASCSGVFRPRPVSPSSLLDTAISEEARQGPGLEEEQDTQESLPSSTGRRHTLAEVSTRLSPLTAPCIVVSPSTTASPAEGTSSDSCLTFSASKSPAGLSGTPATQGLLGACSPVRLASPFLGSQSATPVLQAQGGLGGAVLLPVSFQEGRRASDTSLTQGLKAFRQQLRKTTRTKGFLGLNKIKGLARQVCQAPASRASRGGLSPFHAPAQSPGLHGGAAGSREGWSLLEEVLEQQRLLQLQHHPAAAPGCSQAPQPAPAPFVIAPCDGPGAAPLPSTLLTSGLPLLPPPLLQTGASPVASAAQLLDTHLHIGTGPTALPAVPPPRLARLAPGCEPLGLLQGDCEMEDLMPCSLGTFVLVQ

Row | Compound | pIC50 (SIK1) | pIC50 (SIK2) | pIC50 (SIK3) | pEC50 [1]
1 | COc1cc(-c2cnn3cc(C4(O)CCC4)ccc23)cc(OC(F)F)c1C(=O)N[C@@H]1C[C@@H]1F [Cpd 266, 2-(difluoromethoxy)-N-[(1R,2S)-2-fluorocyclopropyl]-4-[6-(1-hydroxycyclobutyl)pyrazolo[1,5-a]pyridin-3-yl]-6-methoxy-benzamide] | < 6.30 | 6.30 to 7.00 | 8.00 to 11.00 | 6.00 to 7.00
2 | COc1cc(-c2cnn3cc(C(C)(C)COS(C)(=O)=O)ccc23)cc(OC(F)F)c1C(=O)N[C@@H]1C[C@@H]1F [Cpd 267, [2-[3-[3-(difluoromethoxy)-4-[[(1R,2S)-2-fluorocyclopropyl]carbamoyl]-5-methoxy-phenyl]pyrazolo[1,5-a]pyridin-6-yl]-2-methyl-propyl]methanesulfonate] | < 6.30 | < 6.30 | 8.00 to 11.00 | 7.00 to 10.00
3 | COc1cc(-c2cnn3cc(C(C)(C)CN4CCOCC4)ccc23)cc(OC(F)F)c1C(=O)N[C@@H]1C[C@@H]1F [Cpd 269, 2-(difluoromethoxy)-4-[6-(1,1-dimethyl-2-morpholino-ethyl)pyrazolo[1,5-a]pyridin-3-yl]-N-[(1R,2S)-2-fluorocyclopropyl]-6-methoxy-benzamide] | < 6.30 | < 6.30 | 8.00 to 11.00 | 6.00 to 7.00
